Key:
Type in all cases: in vivo
[1] = system: cat fleas (Ctenocephalides felis); assay: whole plant or invertebrate; details: 72 h, read-out: death rate
Method in brief: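 Glass containers (25 cm² inner surface) were coated with 250 µl of a 1000 ppm acetone solution, and the acetone was evaporated to leave a dry film. Five mixed-sex adult fleas were confined per container at 25°C. Mortality was scored after 3 days.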

[2] = system: diamondback moths (Plutella xylostella); assay: Insecticidal test for diamondback moths; details: Plutella xylostella, 144 h; 500 ppm chemical solution, leaves soaked, third-instar larvae, six days, 25°C; read-out: death rate
Method in brief: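 Leaves dipped about 10 s in a 500 ppm aqueous dilution of an emulsion formulation with spreader, then air-dried. Five third-instar larvae released per dish and held at 25 °C. Tested in duplicate.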

[3] = system: brown rice planthoppers (Nilaparvata lugens); assay: Insecticidal test for brown rice planthoppers; details: Nilaparvata lugens, 144 h; 500 ppm chemical solution, rice leaf sheaths soaked, third-instar larvae, six days, 25°C; read-out: death rate
Method in brief: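 Rice leaf sheaths dipped ~10 s in 500 ppm compound solution (emulsion diluted in water with spreader), air-dried, then infested with five third-instar larvae per tube at 25 °C. Mortality scored after 6 days, death rate calculated, in duplicate.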

[4] = system: green peach aphids (Myzus persicae); assay: Insecticidal test for green peach aphids; details: 500 ppm chemical solution sprinkled (2.5 mg/cm^2), wingless imagoes on leaf disc, six days, 25°C; for mortality at 500 µg/mL: Myzus persicae, foliar, 144 h, read-out: death rate
Description: Wet absorbent cotton was laid on each glass dish having an inner diameter of 3 cm, a Chinese olive leaf cut into a circle having a diameter of 3 cm was placed thereon, and four wingless green peach aphids (Myzus persicae) imagoes were released. After a day, a 10% by mass emulsion of the presently invented compound prepared according to the above formulation example for an emulsion was diluted with water containing a spreader to prepare a chemical solution having a concentration of 500 ppm. The chemical solution prepared was sprinkled (2.5 mg/cm^2) with a rotary tower sprinkler, and the dishes were capped and accommodated in a thermostatic room at 25°C. […] The test was carried out in duplicate.

[5] = system: western flower thrips (Frankliniella occidentalis); assay: Insecticidal activity against western flower thrips; details: Frankliniella occidentalis, 48 h; 500 ppm chemical solution sprinkled (2.5 mg/cm^2), larvae on common bean leaf, after 2 days; read-out: death rate
Method in brief: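 Bean leaf squares on wet filter paper inoculated with 20 larvae. Compound emulsion diluted with spreader-containing water to 500 ppm and sprayed at 2.5 mg/cm^2 by rotary tower. Run in duplicate.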

Structure (SMILES)	mortality at 10 µg/cm2 [1] [%]	mortality at 500 µg/mL [2] [%]	mortality at 500 µg/mL [3] [%]	mortality at 500 µg/mL [4] [%]	mortality at 500 µg/mL [5] [%]	death rate ([4]; 8640 min) [%]
N#Cc1ccc(NC(=O)C2=C(O)CC(c3cnc(Cl)c(-c4cccnc4)c3)NC2=O)cn1 (centres unmarked) [2-097]	≥ 50	≥ 90	≥ 90	≥ 90	–	–
O=C(Nc1cnc(Cl)cn1)C1=C(O)CC(c2cnc(Cl)c(-c3cccnc3)c2)NC1=O (centres unmarked) [2-098]	≥ 50	≥ 90	≥ 90	≥ 90	–	–
O=C(Nc1cnc(Br)cn1)C1=C(O)CC(c2cnc(Cl)c(-c3cccnc3)c2)NC1=O (centres unmarked) [2-099]	≥ 50	≥ 90	≥ 90	≥ 90	≥ 90	–
O=C(Nc1ncc(Cl)cn1)C1=C(O)CC(c2cnc(Cl)c(-c3cccnc3)c2)NC1=O (centres unmarked) [2-100]	≥ 50	≥ 90	≥ 90	≥ 90	≥ 90	–
O=C(Nc1cncc(F)c1)C1=C(O)CC(c2cnc(Cl)c(-c3cnccc3F)c2)NC1=O (centres unmarked) [2-137]	≥ 50	≥ 90	≥ 90	≥ 90	≥ 90	–
O=C(Nc1ncccc1F)C1=C(O)CC(c2cnc(Cl)c(-c3cnccc3F)c2)NC1=O (centres unmarked) [2-141]	≥ 50	≥ 90	≥ 90	≥ 90	≥ 90	–
O=C(Nc1cnccc1F)C1=C(O)CC(c2cnc(Cl)c(-c3cncc(Cl)c3)c2)NC1=O (centres unmarked) [2-146]	≥ 50	≥ 90	≥ 90	≥ 90	≥ 90	–
O=C(Nc1nccs1)C1=C(O)CC(c2cnc(C(F)(F)F)c(-c3ccc(F)nc3)c2)NC1=O (centres unmarked) [2-184]	≥ 50	≥ 90	≥ 90	≥ 90	≥ 90	–
Cc1cccc(-c2cc(C3CC(O)=C(C(=O)Nc4ncccn4)C(=O)N3)cnc2Cl)c1 (centres unmarked) [2-271]	≥ 50	≥ 90	≥ 90	≥ 90	≥ 90	–
Cc1cccc(-c2cc(C3CC(O)=C(C(=O)Nc4cccnc4Cl)C(=O)N3)cnc2Cl)c1 (centres unmarked) [2-274]	≥ 50	≥ 90	–	≥ 90	–	–
C#Cc1ccc(NC(=O)C2=C(O)CC(c3cnc(Cl)c(-c4cccc(C)c4)c3)NC2=O)cc1 (centres unmarked) [2-280]	≥ 50	≥ 90	–	≥ 90	≥ 90	–
O=C(Nc1ccc(F)cc1)C1=C(O)CC(c2nc(-c3cccc(F)c3)no2)NC1=O (centres unmarked) [3-011]	≥ 50	≥ 90	≥ 90	≥ 90	≥ 90	–
O=C(Nc1ccc(F)cc1)C1=C(O)CC(c2nc(-c3cccc(F)c3F)no2)NC1=O (centres unmarked) [3-033]	≥ 50	≥ 90	≥ 90	≥ 90	–	–
Cc1cccc(-c2noc(C3CC(O)=C(C(=O)Nc4cc(F)ccn4)C(=O)N3)n2)c1 (centres unmarked) [3-053]	≥ 50	≥ 90	≥ 90	≥ 90	–	–
O=C(Nc1ccc(F)cc1)C1=C(O)CC(c2nc(-c3ccsc3)no2)NC1=O (centres unmarked) [3-109]	≥ 50	≥ 90	–	≥ 90	≥ 90	–
O=C(Nc1cccc(Cl)c1F)C1=C(O)CC(c2nc(-c3ccnc(F)c3)no2)NC1=O (centres unmarked) [3-248]	≥ 50	≥ 90	–	≥ 90	–	–
Cc1ccc(NC(=O)C2=C(O)CC(c3nc(-c4ccnc(F)c4)no3)NC2=O)c(C)c1 (centres unmarked) [3-266]	–	–	–	–	–	≥ 90

From patent publication EP4582413A1, “ARYLTETRAHYDROPYRIDINE COMPOUND AND PEST CONTROL AGENT” (priority 2022, dated 2024)
